Laboratory results as given in patent publication US20170246166A1, “1,2-BENZOTHIAZOLE COMPOUNDS FOR THE TREATMENT OF KIDNEY DISORDERS” (priority 2014, published 2017).

Test system: PKC
Experiment: Cell-based assay of PKC inhibition (PKC substrate phosphorylation in THP-1 cells)
Settings: human THP-1 cells, 1.5 h compound, then 20 nM PMA for 30 min; read-out: absolute IC50, PKC substrate phosphorylation
Description: The purpose of this assay is to test the inhibitory effects of a test compound on PKC in a cell-based system by measuring the level of PKC substrate phosphorylation.
Staurosporin may be used as a positive control. It is prepared in DMSO to make up a […] solution and then serially diluted in plain RPMI 1640 culture medium (10 μM-0.0005 μM) to obtain a ten-point dilution curve. Test compounds are prepared in the same manner.
THP-1 cells (human macrophage cell line) are obtained from ATCC (ATCC TIB-202 lot 4028542). The cells are cultured in 96-well plates coated with poly-d-lysine (Becton Dickinson) with seeding density of 4000 cells/well in RPMI 1640 culture medium (Gibco) with 1% fetal bovine serum (Gibco). […]
After the incubation, the cells are first fixed in the Prefer fixative (ANATECH LTD) for 30 min at room temperature. […] Plates are scanned with an ACUMEN EXPLORER™ Laser-scanning fluorescence microplate cytometer (TTP LABTECH LTD), with 488 nm laser excitation to detect emission fluorescence at 655 nm-705 nm (emission of DNA bound propidium iodide) for cell counting/well, and emission of 505 nm-530 nm fluorescence of antibody binding to phosphorylated PKC substrates in cells. The main assay output is a ratio of total fluorescence of phosphorylated PKC substrates to total cell number (ratio=total intensity/total cell number). […]

Molecule `C[C@@H]1CN(C(=O)c2cc(-c3c(F)cc(O)cc3F)cc3cnsc23)C[C@H](C)N1.Cl` [Example 2, 4-(7-{[(3R,5 S)-3,5-DIMETHYLPIPERAZIN-1-YL]CARBONYL}-1,2-BENZOTHIAZOL-5-YL)-3,5-DIFLUOROPHENOL HYDROCHLORIDE] has an IC50 of about 800 nM.
